# Patent US11046954B2, “Targeted protein degradation to attenuate adoptive T-cell therapy associated adverse inflammatory responses” (Dana-Farber Cancer Institute, Inc., priority 2015, dated 2021)
# Columns and labels:
# [1] = test system: downstream surrogates of KRAS signaling (e.g. pMEK and pAKT); experiment: Immunoblot of NIH3T3 cells expressing FKBP*-KRASG12V: downstream KRAS signaling; type: cell-based; conditions: NIH3T3 FKBP*-KRASG12V; 1 μM, 24 hours
# Method: (§1) FIG. 19 is an immunoblot of NIH3T3 cells expressing KRASG12V allele fused to FKBP* in the N-terminus or C-terminus. Cells were treated with 500 nM dFKBP7 for the indicated time. Cells were harvested and immunoblotted to measure degradation of FKBP*-KRASG12V and downstream surrogates of KRAS signaling (e.g. pMEK and pAKT).
# (§2) FIG. 20 is an immunoblot of NIH3T3 cells expressing FKBP* fused to the N-terminus of KRASG12V treated with luM of the indicated dFKBP heterobifunctional compounds for 24 hours. Cells were harvested and immunoblotted to measure degradation of FKBP*-KRASG12V and downstream surrogates of KRAS signaling (e.g. pMEK and pAKT).
# (§3) FIG. 21 is an immunoblot of NIH3T3 cells expressing FKBP* fused to the N-terminus of KRASG12V treated with the indicated concentrations of dFKBP13 for 24 hours. Cells were harvested and immunoblotted to measure degradation of FKBP*-KRASG12V and downstream surrogates of KRAS signaling (e.g. pMEK and pAKT).
# (§4) FIG. 22 is an immunoblot of NIH3T3 cells expressing FKBP* fused to the N-terminus of KRASG12V treated with luM dFKBP13 for the indicated time. Cells were harvested and immunoblotted to measure degradation of FKBP*-KRASG12V and downstream surrogates of KRAS signaling (e.g. pMEK and pAKT).
# (§5) Cells were treated with 500 nM dFKBP7 for the indicated time. Cells were harvested and immunoblotted to measure degradation of FKBP*-KRAS and downstream surrogates of KRAS signaling (e.g. pMEK and pAKT).
# (§6) Western blotting of NIH3T3 cells expressing dTAG-KRASG12V were treated with 1 μM of the indicated dFKBP heterobifunctional compounds for 24 hours. Cells were harvested and immunoblotted to measure degradation of FKBP*-KRAS and downstream surrogates of KRAS signaling (e.g. pMEK and pAKT).
# (§7) Western blotting of NIH3T3 cells expressing FKBP* fused to the N-terminus of KRAS treated with the indicated concentrations of dFKBP13 for 24 hours. Cells were harvested and immunoblotted to measure degradation of FKBP*-KRAS and downstream surrogates of KRAS signaling (e.g. pMEK and pAKT).
# (§8) To evaluate the kinetic control of targeted degradation of dTAG-KRAS, dFKBP13 was administered by increased duration. Western blotting of NIH3T3 cells expressing FKBP* fused to the N-terminus of KRAS treated with 1 μM dFKBP13 for the indicated time. Cells were harvested and immunoblotted to measure degradation of FKBP*-KRAS and downstream surrogates of KRAS signaling (e.g. pMEK and pAKT).
# [2] = test system: FKBP*-KRASG12V; experiment: Immunoblot of NIH3T3 cells expressing FKBP* fused to KRASG12V: degradation; type: cell-based; conditions: 1 μM, 24 hours
# Method: as §1, §2, §3, §4, §5, §6, §7, §8
structure (smiles),measurement,setting,value
CC[C@H](C(=O)N1CCCC[C@H]1C(=O)O[C@H](CCc1ccc(OC)c(OC)c1)c1cccc(OCC(=O)NCCCCCCCCNC(=O)COc2cccc3c2C(=O)N(C2CCC(=O)NC2=O)C3=O)c1)c1cc(OC)c(OC)c(OC)c1 (some centres unmarked) [dFKBP9],"inhibition of downstream signaling (pMEK, pAKT)",[1],inhibition of downstream signaling
same,degradation of FKBP*-KRASG12V,[2],potent degradation
